Common to all, as to assay type: cell-based, calf
The test system of assay [1] is chondrocytes. Nature of the assay: PDT-induced cytotoxicity (MTT cellular viability) in chondrocytes. To be noted: for toxic response / cellular viability (in words): 1, 5 or 10 J/cm^2 light; for decrease in cellular viability: BPD-MA concentrations exceeding 0.1 μg/ml, 690 nm, 72 hours after irradiation. The method, then:
(§1) Chondrocytes were harvested by established collagenase digestion techniques. Articular cartilage was aseptically dissected from the femoral condyles and patellas of calf knee joints. […] The resulting cell suspensions were filtered through a cell sieve and washed twice with serum free TCM. The cells were resuspended in the same medium containing 5% heat inactivated fetal calf serum (BioWhittaker, Walkerville, Md.) (FCS-TCM) for seeding. Cell number was determined using a hemocytometer. […] Cells were plated at a density of 1.5×10^6 cells/ml into Falcon 96 well cell culture plates (Becton Dickinson Labware, Franklin Lakes, N.J.) for the cytotoxicity and cell proliferation experiments and into Falcon 6 well cell culture plates for the Photosensitizer uptake studies. Chondrocyte cultures were maintained at 37° C. in a 5% CO2 incubator for 1 week prior to initiation of the photosensitization studies.
(§2) Photofrin® (PF) and Benzoporphyrin Derivative (BPD-MA) were obtained from Quadralogic Technologies (Vancouver, Canada). Chlorin e6 (Ce6) and chloroaluminum phthalocyanine (CASP) were obtained from Ciba Geigy (Basel, Switzerland) and Porphyrin Products (Logan, Utah), respectively. All photosensitizers were added to the chondrocytes in the dark 3 hours prior to light exposure. Photosensitizer stock solutions were prepared immediately prior to each experiment; serial dilutions were prepared using FCS-TCM. All irradiations were done at the appropriate excitation wavelengths for each photosensitizer (BPD-MA 690 nm; Ce6 658 nm; CASP 680 nm; PF 624 nm) using light provided by an argon ion pumped dye laser (Coherent, Palo Alto, Calif.). Following light exposure, control and irradiated cells were maintained for 72 hours prior to the assessment of cellular viability and proliferation rates. Cells were examined daily by light microscopy for morphologic changes.
Screening studies of toxicity determined the range of doses and light response for each photosensitizer. These predetermined ranges were used for all of the studies described. […] Dosages greater than 50 μg/ml were considered not clinically relevant and a dose range extending to 50 μg/ml was chosen for these studies.
PDT-induced cytotoxicity was determined 72 hours after irradiation. […] MTT is metabolized via mitochondrial dehydrogenase enzymes to a formazan dye which can be measured spectrophotometrically. Cytotoxicity is expressed as the percentage of formazan produced in cells treated with visible light of different wavelengths and intensities relative to control cells (% control). The data are expressed as the mean ±S.E.M. from triplicate experiments.

The subject of assay [2] is chondrocytes. Kind of assay: Cell proliferation ([^3 H]-thymidine incorporation) after PDT. To be noted: for effect on cellular proliferation rates (in words): [^3 H]-thymidine incorporation (FIG. 2); for IC50 (Table 2): concentration inhibiting [^3 H]-thymidine incorporation by 50%. How it is done:
as §1, §2
Cell proliferation was determined by [^3 H]-thymidine incorporation for all chondrocyte cultures 72 hours after drug and/or light exposure. The cell cultures were labeled with 5 μCi/ml [^3 H]-thymidine (35 Ci/mmol) (ICN, Irvine, Calif.) in FCS-TCM. After incubation for 20 hours, the radioactive medium was removed and the cells were rinsed three times with phosphate buffered saline (PBS) to remove unincorporated label. The cells were then lysed with buffer containing 150 mM Tris pH 8.0, 200 mM sodium chloride, 10% triton X-100 and 1% SDS. [^3 H]-thymidine incorporation was determined by liquid scintillation methods and the data are expressed as mean % control ±S.E.M. of samples irradiated without photosensitizer addition.
(§3) Articular chondrocytes were maintained in primary culture for five days after plating. Photosensitizer stocks were serially diluted in FCS-TCM and added to triplicate wells. The cells were incubated in the dark for 3 hours. The photosensitizer-containing FCS-TCM was then removed and the cells were rinsed with 1 ml PBS. To digest the extracellular matrix, the cells were then immersed in 1 ml of a solution of 1 mg/ml collagenase and 0.1 mg/ml hyaluronidase in serum-free TCM. The resulting single cell suspensions were transferred to microfuge tubes and were centrifuged at 3.3×g for 5 minutes. The collagenase solution was removed and the cells were rinsed three times with calcium/magnesium-free PBS. Aliquots were taken for cell counting prior to cell lysis with 1 ml 0.1 N NaOH containing 1% SDS. Cell counting was performed by hemocytometer and Coulter counter. Fluorescent spectra of the cell lysates were obtained using a Spex FluoroMax spectrofluorometer (ISA Instruments, Edison, N.J.) at the appropriate excitation/emission wavelengths for each of the four photosensitizers studied. Fluorescence spectra were corrected for background fluorescence. Relative uptake values were obtained by regression analysis of standard curves of known photosensitizer concentrations. […] Values of uptake at the IC50 are shown in fg/cell.

In the next assay the test system is articular chondrocytes. Nature of the assay: Photosensitizer uptake studies. To be noted: for IC50 Uptake: uptake at the IC50, 3 hours incubation in the dark. The method, then:
as §1
as §3, with “fg/cell. Average protein per cell was calculated from the cell counts and protein concentration determined by the Lowry protein assay.” for “fg/cell.”

The next assay relates to MMP2. Kind of assay: Gelatin zymography, MMP2 after PDT. The method, then: as §1, §2
Aliquots of conditioned medium were mixed with 1 ml of acetone and maintained at -20° C. for 16-20 hours. The aliquots were microcentrifuged at 14,000×g for 15 minutes, the supernatant was removed and the precipitated protein was dried in a vacuum concentrator (Savant, Farmingdale, N.Y.) to remove residual acetone. Conditioned medium samples were mixed with sample buffer (0.4 M Tris pH 6.8, 5% SDS, 20% glycerol, 0.003% bromophenol blue) and applied directly, without boiling or reduction, to 10% acrylamide gels containing 1% gelatin. […] The gels were stained for 1 hour at room temperature in 30% methanol/10% acetic acid containing 0.5% coomassie blue R-250 and destained in the same solution without dye. The gelatinolytic activity of the proteins was evidenced by clear bands against the blue background of the stained gelatin.

In assay [3] the test system is chondrocytes. Kind of assay: Fluorescence of photosensitizers in chondrocytes (confocal microscopy).
Setting [4] is: CASP parameters tested in zymography studies.

With `[Cl][Al]1[n]2c3c4ccccc4c2N=C2N=C(N=c4c5ccccc5c([n]41)=NC1=NC(=N3)c3ccccc31)c1ccccc12` [CASP, chloroaluminum phthalocyanine], in the assay on chondrocytes [1], the “toxic response / cellular viability (in words)” value is given as “minimally toxic to articular chondrocytes”. In the assay with chondrocytes [1] (setting [4]), the “decrease in cellular viability by MTT production (in words)” value is “no decrease in cellular viability was observed”. In addition, the “saturation of toxicity effects (in words)” value with chondrocytes [1] (in the range studied (FIG. 1D)) is listed as “No saturation effects were observed”. In addition, the “dose response in screening studies of toxicity (in words)” value with chondrocytes [1] (screening studies of toxicity to determine range of doses) is “no dose response was seen”. In addition, the “reduction of [^3 H]-thymidine incorporation” value in the assay on chondrocytes [2] (50 μg/ml, highest concentration of CASP investigated) is given as 25%. For the same molecule, the “decrease by [^3 H]-thymidine incorporation (in words)” value with chondrocytes [2] (setting [4]) was “no decrease in cellular viability was observed”. In addition, in the assay on chondrocytes [2], the “effect on cellular proliferation rates (in words)” value is “least toxic” and the “IC50 (Table 2)” value was over 50 mg/L. For the same molecule, in the assay with articular chondrocytes, the “Photons Absorbed at IC50” value was 1.86 × 10^6 photons/cell and the “IC50 Uptake” value is reported as 64.77 fg/cell. Also, in the assay with MMP2 (3.12 μg/ml, light dose of 10 J/cm^2, no decrease in cell viability), the “reduction in MMP2 levels (in words)” value is reported as “complete reduction in MMP2 levels”. The “reductions in MMP2 levels (in words)” value with MMP2 (CASP parameters tested) is given as “significant reductions in MMP2 levels”. Also, the “decrease of MMP2 levels” value in the assay on MMP2 (drug concentrations greater than 0.2 μg/ml, light dose of 10 J/cm^2) stood at 25%. The “cellular fluorescence intensity (in words)” value in the assay with chondrocytes [3] is “Minimal CASP fluorescence was observed at the drug concentrations studied”.
Regarding Benzoporphyrin Derivative [BPD-MA], in the assay with chondrocytes [1], the “toxic response / cellular viability (in words)” value is given as “most toxic responses in chondrocyte cultures”. Moreover, the “decrease in cellular viability” value in the assay with chondrocytes [1] (1 J/cm^2 light) is recorded as 60%. Also, the “decrease in cellular viability” value in the assay on chondrocytes [1] (5 or 10 J/cm^2 light) was determined as 80%. Moreover, the “IC50, inhibition of chondrocyte proliferation ([^3 H]-thymidine incorporation)” value with chondrocytes [2] (72 hours after drug and/or light exposure, light dose not given) came out at 0.0503 mg/L. Also, in the assay on chondrocytes [2], the “effect on cellular proliferation rates (in words)” value is given as “most toxic effects” and the “IC50 (Table 2)” value is 0.05 mg/L. For the same molecule, in the assay with articular chondrocytes, the “Photons Absorbed at IC50” value is 5.86 × 10^6 photons/cell and the “IC50 Uptake” value is 1.02 fg/cell. Moreover, in the assay with articular chondrocytes (at the IC50 concentrations, 3 hour incubation), the “relative uptake (in words)” value is reported as “lowest relative uptake”. Further, the “MMP2 production (in words)” value with MMP2 (at a highly toxic dose) is recorded as “non-detectable”. In the assay with MMP2 (at the IC50 dose), the “reduction of MMP2 production” value was “approximately 50%”. The “MMP2 production (in words)” value in the assay with MMP2 (dependence on cell killing) is reported as “MMP2 production decreased as a function of cell killing”. Further, in the assay with chondrocytes [3], the “cellular fluorescence intensity (in words)” value was “strongest fluorescence signals”; the “fluorescence/uptake in differentiated vs dedifferentiated chondrocytes (in words)” value was “Fluorescence occurred uniformly in both differentiated and dedifferentiated chondrocytes”; the “subcellular fluorescence distribution (in words)” value is given as “diffuse cytoplasmic fluorescence for all drug concentrations studied. No nuclear or membrane staining was observed”.

(Values after patent publication US5942534A, “Photodynamic therapy for the treatment of osteoarthritis” (The General Hospital Corporation, priority 1997, dated 1999).)
